Experimental data taken from ChEMBL document CHEMBL1201862, “PubChem BioAssay data set” (2004).
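48-hour exposure; five concentrations; linearly interpolated endpoints. GI50 = concentration required for 50% inhibition of growth.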 Activity calls are given as the source filed them. Rule as the data show it: active = GI50 up to about 1.1 µM and inactive = higher.

Key:
Test in all cases: NCI anticancer screen, dose series, 48 h
COLO 205 = system: COLO 205
M14 = system: M14
SF-268 = system: SF-268
A498 = system: A498
SW-620 = system: SW-620
OVCAR-5 = system: OVCAR-5
LXFL 529 = system: LXFL 529
RXF 631 = system: RXF 631
NCI-H23 = system: NCI-H23
IGROV-1 = system: IGROV-1
RPMI-8226 = system: RPMI-8226
HL-60 = system: HL-60
MOLT-4 = system: MOLT-4
DLD-1 = system: DLD-1
OVCAR-4 = system: OVCAR-4
SF-539 = system: SF-539
K562 = system: K562
HT-29 = system: HT-29
UACC-62 = system: UACC-62
Malme-3M = system: Malme-3M
SNB-75 = system: SNB-75
TK-10 = system: TK-10
DMS-114 = system: DMS-114
CCRF-CEM = system: CCRF-CEM
SNB-19 = system: SNB-19
786-0 = system: 786-0
SN12C = system: SN12C
HCT-15 = system: HCT-15
SK-OV-3 = system: SK-OV-3
ACHN = system: ACHN
UACC-257 = system: UACC-257
KM12 = system: KM12
SR = system: SR
HOP-62 = system: HOP-62
EKVX = system: EKVX
KM-20L2 = system: KM-20L2
RXF 393 = system: RXF 393
NCI-H522 = system: NCI-H522
A549 = system: A549
HCC 2998 = system: HCC 2998
OVCAR-8 = system: OVCAR-8
UO-31 = system: UO-31
NCI-H460 = system: NCI-H460
SK-MEL-28 = system: SK-MEL-28
M19-MEL = system: M19-MEL
NCI-H226 = system: NCI-H226
SF-295 = system: SF-295
SK-MEL-2 = system: SK-MEL-2
U-251 = system: U-251
HCT-116 = system: HCT-116
OVCAR-3 = system: OVCAR-3
SK-MEL-5 = system: SK-MEL-5
HOP-92 = system: HOP-92
SNB-78 = system: SNB-78
CAKI-1 = system: CAKI-1
LOX IMVI = system: LOX IMVI

Measured: GI50

CC1=C(C)C(=O)C2=C(OCCCO2)C1=O
> 100 µM: HCT-15
inactive: COLO 205 34.2 µM | M14 17 µM | SF-268 18.3 µM | A498 > 10 µM | SW-620 17 µM | OVCAR-5 > 10 µM | LXFL 529 18 µM | RXF 631 17.7 µM | NCI-H23 > 10 µM | IGROV-1 18.2 µM | RPMI-8226 16.5 µM | HL-60 3.61 µM | MOLT-4 2.4 µM | DLD-1 > 10 µM | OVCAR-4 > 10 µM | SF-539 > 10 µM | K562 21.6 µM | HT-29 20.8 µM | UACC-62 18.1 µM | Malme-3M > 10 µM | SNB-75 23.8 µM | TK-10 > 10 µM | DMS-114 18.4 µM | CCRF-CEM 2.43 µM | SNB-19 > 100 µM | 786-0 19.2 µM | SN12C > 10 µM | SK-OV-3 > 100 µM | ACHN 18.4 µM | UACC-257 > 10 µM | KM12 > 10 µM | SR 21.9 µM | HOP-62 > 100 µM | EKVX 17.2 µM | KM-20L2 34.2 µM | RXF 393 > 10 µM | NCI-H522 18 µM | A549 81.8 µM | HCC 2998 59.4 µM | OVCAR-8 18.7 µM | UO-31 16.5 µM | NCI-H460 > 10 µM | SK-MEL-28 35.6 µM | M19-MEL 17.9 µM | NCI-H226 > 10 µM | SF-295 29.1 µM | SK-MEL-2 > 10 µM | U-251 > 100 µM | HCT-116 > 10 µM | OVCAR-3 18.1 µM

CC1=C(C(=O)Nc2cc(F)c(F)cc2F)C(c2cccc([N+](=O)[O-])c2)C(C(=O)Nc2ccccc2C(F)(F)F)=C(C)N1 (stereo not drawn)
inactive: SK-MEL-5 22.1 µM | COLO 205 28.7 µM | HOP-92 10.9 µM | M14 22.8 µM | SF-268 18.7 µM | A498 11.2 µM | SW-620 31 µM | OVCAR-5 17.9 µM | LXFL 529 16.8 µM | RXF 631 19.2 µM | NCI-H23 16.6 µM | IGROV-1 23.5 µM | RPMI-8226 13 µM | HL-60 14.6 µM | SNB-78 19.5 µM | MOLT-4 12.5 µM | DLD-1 25.3 µM | OVCAR-4 18.1 µM | SF-539 20.7 µM | K562 14.4 µM | HT-29 26.7 µM | Malme-3M 25.4 µM | SNB-75 12.6 µM | TK-10 31.8 µM | DMS-114 17 µM | CCRF-CEM 17.5 µM | SNB-19 30.7 µM | 786-0 17.3 µM | SN12C 19.8 µM | SK-OV-3 23.2 µM | ACHN 21.1 µM | UACC-257 23.4 µM | KM12 21.3 µM | HOP-62 22.4 µM | CAKI-1 15.8 µM | EKVX 21.4 µM | KM-20L2 23.8 µM | RXF 393 13.9 µM | NCI-H522 13.8 µM | A549 26.8 µM | HCC 2998 20 µM | OVCAR-8 27 µM | UO-31 12.3 µM | NCI-H460 18.5 µM | SK-MEL-28 22 µM | M19-MEL 27.2 µM | NCI-H226 21.3 µM | SF-295 23.4 µM | SK-MEL-2 18 µM | LOX IMVI 17.9 µM | U-251 16.9 µM | OVCAR-3 16.8 µM
